Results: patent US9932637B2, “Genetic polymorphisms associated with cardiovascular disorders and drug response, methods of detection and uses thereof” (CELERA CORPORATION, priority 2003, dated 2018)
“And” between values parts separate entries of the source, which are not always exact repeats. Identical values can stand only once.

Test system: patients with prior myocardial infarction (CARE study)
Test: CARE aligned analysis (prospective and case/control design, white males): association of genotypes with pravastatin efficacy (Tables 13, 15)
Assay type: in vivo, human
Conditions: for Pravastatin Patients n/total / Pravastatin Patients (%) / 2 Rare Alleles (%), Pravastatin Patients: F&NF MI; for Pravastatin Patients n/total / Pravastatin Patients (%): WM; for Pravastatin vs placebo odds ratio, 0 rare alleles / Pravastatin vs placebo odds ratio, 1 rare allele / Pravastatin vs placebo odds ratio, 2 rare alleles / 2 rare alleles n/total (%), pravastatin patients: CARE, F MI/SD/NF MI; for Pravastatin vs. Placebo Odds Ratio (95% CI), Patients with 0 Rare Alleles / n/total (%) cases, Pravastatin Patients, 0 Rare Alleles: PON1 hCV2548962, 0 rare alleles; for Pravastatin vs. Placebo Odds Ratio (95% CI), Patients with 0 Rare Alleles / n/total (%) cases, Pravastatin Patients, 0 Rare Alleles / Pravastatin vs. Placebo Odds Ratio (95% CI), Patients with 1 Rare Allele / n/total (%) cases, Pravastatin Patients, 1 Rare Allele / Pravastatin vs. Placebo Odds Ratio (95% CI), Patients with 2 Rare Alleles / n/total (%) cases, Pravastatin Patients, 2 Rare Alleles: White Males; for Pravastatin vs. Placebo Odds Ratio (95% CI), Patients with 1 Rare Allele / n/total (%) cases, Pravastatin Patients, 1 Rare Allele: PON1 hCV2548962, 1 rare allele
Description: The data presented in Table 8 based on an association of genotypes with pravastatin efficacy of the CARE samples were further analyzed and presented in Table 13. The further analysis was performed to align the data obtained from the analysis of the CARE samples, which was a prospective study, to the analysis of the WOSCOP samples, which was a case/control study. Table 13 also presents an analysis of the association of genotypes with pravastatin efficacy in the WOSCOPs samples. Relative to the analysis performed on the data presented in Table 8, there are two significant differences to determine if the SNP influenced pravastatin efficacy. Data obtained from the CARE samples were separated by study design into two groups, those in the prospective study design group and those in the case/control study design group. The original care study contained 16 protocol defined cardiovascular disease defined endpoints and 150 other phenotypes. […] The control groups used to compare the data were also divided into two groups, the “all possible” control group and the “cleaner” control group. […] Because the participants in the WOSCOPs trial were all white males, only data obtained from white males in the CARE study were analysed. Data from the “all possible” and “cleaner” controls were compared to data obtained from the cases in the prospective study design while only data from “cleaner” controls were compared to cases in the case/control study design. The data from the case/control cohorts were analysed using conditional logistic regression (as opposed to logistic regression used for the original anaylsis).
The anaylsis was refined as described for both Tables 13 and 14.

[1] = NPC1 hCV7490135, 0 Rare Alleles, CARE Prospective, Cleaner controls
[2] = NPC1 hCV7490135, 1 Rare Allele, CARE Prospective, Cleaner controls
[3] = NPC1 hCV25472673, 0 Rare Alleles, CARE Case/Control, Cleaner controls
[4] = NPC1 hCV25472673, 0 Rare Alleles, CARE Prospective, Cleaner controls
[5] = NPC1 hCV25472673, 1 Rare Allele, CARE Case/Control, Cleaner controls
[6] = NPC1 hCV25472673, 1 Rare Allele, CARE Prospective, Cleaner controls
[7] = PLAB hCV7494810, 0 Rare Alleles, CARE Case/Control, All Possible controls
[8] = PLAB hCV7494810, 0 Rare Alleles, CARE Case/Control, Cleaner controls
[9] = PLAB hCV7494810, 0 Rare Alleles, CARE Prospective, All Possible controls
[10] = PLAB hCV7494810, 1 Rare Allele, CARE Case/Control, All Possible controls
[11] = PLAB hCV7494810, 1 Rare Allele, CARE Case/Control, Cleaner controls
[12] = PLAB hCV7494810, 1 Rare Allele, CARE Prospective, All Possible controls
[13] = PLAB hCV7494810, Case/Control, listed as Pravastatin
[14] = PLAB hCV7494810, Prospective, listed as Pravastatin
[15] = CARE Case/Control, Fatal & Nonfatal MI, Cleaner controls
[16] = CARE Prospective, Fatal & Nonfatal MI, Cleaner controls
[17] = CARE Prospective, Total CHD Events, All Possible controls
[18] = PON1 hCV2548962, 2 rare alleles, CARE Case/Control, Fatal & Nonfatal MI, Cleaner controls
[19] = PON1 hCV2548962, 2 rare alleles, CARE Prospective, Fatal & Nonfatal MI, Cleaner controls

SMILES: CC[C@H](C)C(=O)O[C@H]1C[C@H](O)C=C2C=C[C@H](C)[C@H](CC[C@@H](O)C[C@@H](O)CC(=O)O)[C@H]21 [pravastatin]
- Pravastatin Patients n/total (NOS3 hCV3219460, 1 Rare Allele, CARE Prospective, Cleaner controls): 64/366
- Pravastatin vs placebo odds ratio, 0 rare alleles (NOS3 hCV3219460, Case/Control): 0.76 and 0.67
- Pravastatin vs placebo odds ratio, 1 rare allele (NOS3 hCV3219460, Case/Control): 1.04 and 0.98
- Pravastatin vs placebo odds ratio, 2 rare alleles (NOS3 hCV3219460, Case/Control): 0.27 and 0.23
- Pravastatin vs placebo odds ratio, 0 rare alleles (NOS3 hCV3219460, Prospective): 0.79 and 0.70
- Pravastatin vs placebo odds ratio, 1 rare allele (NOS3 hCV3219460, Prospective): 1.04 and 0.95
- Pravastatin vs placebo odds ratio, 2 rare alleles (NOS3 hCV3219460, Prospective): 0.27 and 0.22
- Pravastatin Patients (%) [1]: (18.3%)
- Pravastatin Patients n/total [1]: 44/240
- Pravastatin Patients (%) [2]: (13.7%)
- Pravastatin Patients n/total [2]: 56/408
- 2 Rare Alleles (%), Pravastatin Patients (NPC1 hCV7490135, CARE Prospective): (13.8%)
- Pravastatin Patients (%) [3]: (17.4%)
- Pravastatin Patients n/total [3]: 53/304
- Pravastatin Patients (%) [4]: (17.3%)
- Pravastatin Patients n/total [4]: 53/307
- Pravastatin Patients (%) [5]: (13.5%)
- Pravastatin Patients n/total [5]: 51/378
- Pravastatin Patients (%) [6]: (13.2%)
- Pravastatin Patients n/total [6]: 51/386
- 2 Rare Alleles (%), Pravastatin Patients (NPC1 hCV25472673, CARE Case/Control): (15.0%)
- 2 Rare Alleles (%), Pravastatin Patients (NPC1 hCV25472673, CARE Prospective): (14.7%)
- 2 rare alleles n/total (%), pravastatin patients (NPC1 hCV25472673, Case/Control): (12.6%)
- Pravastatin vs placebo odds ratio, 0 rare alleles (NPC1 hCV25472673, Case/Control): 1.21
- Pravastatin vs placebo odds ratio, 1 rare allele (NPC1 hCV25472673, Case/Control): 0.65
- Pravastatin vs placebo odds ratio, 2 rare alleles (NPC1 hCV25472673, Case/Control): 0.34
- 2 rare alleles n/total (%), pravastatin patients (NPC1 hCV25472673, Prospective): (8.7%)
- Pravastatin vs placebo odds ratio, 0 rare alleles (NPC1 hCV25472673, Prospective): 1.25
- Pravastatin vs placebo odds ratio, 1 rare allele (NPC1 hCV25472673, Prospective): 0.71 and 0.62
- Pravastatin vs placebo odds ratio, 2 rare alleles (NPC1 hCV25472673, Prospective): 0.49 and 0.34
- Pravastatin Patients (%) [7]: (12.2%)
- Pravastatin Patients n/total [7]: 84/691
- Pravastatin Patients (%) [8]: (17.5%)
- Pravastatin Patients n/total [8]: 84/481
- Pravastatin Patients (%) [9]: (11.9%)
- Pravastatin Patients n/total [9]: 84/706
- Pravastatin Patients (%) [10]: (8.5%)
- Pravastatin Patients n/total [10]: 38/448
- Pravastatin Patients (%) [11]: (12.6%)
- Pravastatin Patients n/total [11]: 38/302
- Pravastatin Patients (%) [12]: (8.4%)
- Pravastatin Patients n/total [12]: 38/455
- 2 Rare Alleles (%), Pravastatin Patients (PLAB hCV7494810, CARE Prospective): (6.9%)
- 2 rare alleles n/total (%), pravastatin patients (PLAB hCV7494810, Case/Control): (8.3%)
- Pravastatin vs placebo odds ratio, 0 rare alleles (PLAB hCV7494810, Case/Control): 0.95
- Pravastatin vs placebo odds ratio, 0 rare alleles [13]: 1.03
- Pravastatin vs placebo odds ratio, 1 rare allele [13]: 0.50 and 0.44
- Pravastatin vs placebo odds ratio, 2 rare alleles [13]: 1.62 and 1.45
- 2 rare alleles n/total (%), pravastatin patients (PLAB hCV7494810, Prospective): (8.3%)
- Pravastatin vs placebo odds ratio, 0 rare alleles (PLAB hCV7494810, Prospective): 0.93
- Pravastatin vs placebo odds ratio, 0 rare alleles [14]: 1.03
- Pravastatin vs placebo odds ratio, 1 rare allele [14]: 0.52 and 0.46
- Pravastatin vs placebo odds ratio, 2 rare alleles [14]: 1.61 and 1.24
- Pravastatin vs. Placebo Odds Ratio (95% CI), Patients with 0 Rare Alleles [15]: 0.84 (0.58 to 1.22)
- n/total (%) cases, Pravastatin Patients, 0 Rare Alleles [15]: 67/416 (16.1%)
- Pravastatin vs. Placebo Odds Ratio (95% CI), Patients with 0 Rare Alleles [16]: 0.81 (0.56 to 1.16)
- n/total (%) cases, Pravastatin Patients, 0 Rare Alleles [16]: 67/423 (15.8%)
- Pravastatin vs. Placebo Odds Ratio (95% CI), Patients with 0 Rare Alleles [17]: 0.77 (0.61 to 0.98)
- n/total (%) cases, Pravastatin Patients, 0 Rare Alleles [17]: 183/613 (29.9%)
- Pravastatin vs. Placebo Odds Ratio (95% CI), Patients with 1 Rare Allele [15]: 0.63 (0.42 to 0.95)
- n/total (%) cases, Pravastatin Patients, 1 Rare Allele [15]: 50/335 (14.9%)
- Pravastatin vs. Placebo Odds Ratio (95% CI), Patients with 1 Rare Allele [16]: 0.64 (0.31 to 1.36)
- n/total (%) cases, Pravastatin Patients, 1 Rare Allele [16]: 50/340 (14.7%)
- Pravastatin vs. Placebo Odds Ratio (95% CI), Patients with 1 Rare Allele [17]: 0.94 (0.58 to 1.54)
- n/total (%) cases, Pravastatin Patients, 1 Rare Allele [17]: 151/504 (30.0%)
- ORs of fatal or non-fatal MI when treated with pravastatin (PON1 hCV2548962, 2 rare alleles, CARE and WOSCOPs sample sets): 0.28-0.34
- Pravastatin vs. Placebo Odds Ratio (95% CI), Patients with 2 Rare Alleles [18]: 0.29 (0.12 to 0.71)
- n/total (%) cases, Pravastatin Patients, 2 Rare Alleles [18]: 9/79 (11.4%)
- Pravastatin vs. Placebo Odds Ratio (95% CI), Patients with 2 Rare Alleles [19]: 0.32 (0.11 to 0.95)
- n/total (%) cases, Pravastatin Patients, 2 Rare Alleles [19]: 9/80 (11.3%)
- Pravastatin vs. Placebo Odds Ratio (95% CI), Patients with 2 Rare Alleles (PON1 hCV2548962, 2 rare alleles, CARE Prospective, Total CHD Events, All Possible controls): 0.28 (0.13 to 0.60)
